Measurements from ChEMBL document CHEMBL5050852, “Kif18a inhibitors” (2021).

Target: T1, Kinesin-like protein KIF18A (Homo sapiens, UniProt Q8NI77)
T1 sequence (Q8NI77 whole entry): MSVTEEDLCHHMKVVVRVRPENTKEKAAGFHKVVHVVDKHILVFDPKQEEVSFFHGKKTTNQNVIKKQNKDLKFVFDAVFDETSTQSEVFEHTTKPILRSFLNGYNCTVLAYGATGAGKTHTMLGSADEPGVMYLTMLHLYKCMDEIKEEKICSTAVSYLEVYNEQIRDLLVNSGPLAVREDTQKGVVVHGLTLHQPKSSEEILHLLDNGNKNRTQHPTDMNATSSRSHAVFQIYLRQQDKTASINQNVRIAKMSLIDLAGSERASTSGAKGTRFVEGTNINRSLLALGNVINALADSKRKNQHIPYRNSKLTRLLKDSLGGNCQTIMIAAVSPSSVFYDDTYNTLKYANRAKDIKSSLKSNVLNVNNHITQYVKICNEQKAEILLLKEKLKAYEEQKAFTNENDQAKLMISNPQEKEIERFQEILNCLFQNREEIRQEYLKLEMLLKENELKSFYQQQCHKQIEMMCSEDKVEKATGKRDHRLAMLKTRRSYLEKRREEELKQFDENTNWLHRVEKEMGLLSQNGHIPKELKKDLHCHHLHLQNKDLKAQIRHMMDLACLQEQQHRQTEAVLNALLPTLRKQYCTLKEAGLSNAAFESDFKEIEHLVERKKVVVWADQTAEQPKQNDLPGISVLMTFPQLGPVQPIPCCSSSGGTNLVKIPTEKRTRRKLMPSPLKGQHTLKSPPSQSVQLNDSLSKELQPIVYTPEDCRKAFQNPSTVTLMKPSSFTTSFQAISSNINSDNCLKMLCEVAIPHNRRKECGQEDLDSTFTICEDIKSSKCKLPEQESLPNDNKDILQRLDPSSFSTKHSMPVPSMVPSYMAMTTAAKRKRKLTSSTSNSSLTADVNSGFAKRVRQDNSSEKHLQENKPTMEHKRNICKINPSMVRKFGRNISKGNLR
Assay: Inhibition of recombinant His-tagged human KIF18A (1 to 467 residues) expressed in baculovirus expression system assessed as inhibition of microtubule-stimulated ATPase activity preincubated for 15 mins followed by ATP addition and further incubated for 15 mins and measured after 40 mins by ADP-Glo reagent based assay

| SMILES | IC50 [nM] |
| --- | --- |
| CC(C)(C)NS(=O)(=O)c1cccc(NC(=O)c2ccc(CS(=O)(=O)C(C)(C)C)cc2N2CCC3(CC2)CC3)c1 | 76 |
| C[C@@H]1CN(c2cc(F)cc(NC(=O)c3ccc(NS(=O)(=O)CCO)cc3N3CCC4(CC3)CC4)c2)CCO1 | 131 |
| CC(C)(C)NS(=O)(=O)c1cccc(NC(=O)c2ccc(NS(=O)(=O)CCO)cc2N2CCC3(CC2)CC3)c1 | 51 |

Continued by falling IC50, values first:

| IC50 [nM] | SMILES |
| --- | --- |
| 198 | CC(C)(CO)Nc1cccc(NC(=O)c2ccc(S(=O)(=O)NC3(C)COC3)cc2N2CCC3(CC2)CC3)c1 |
| 75 | CCS(=O)(=O)Cc1ccc(C(=O)Nc2cccc(S(=O)(=O)NC(C)(C)C)c2)c(N2CCC3(CC2)CC3)c1 |
